Experimental data reported in patent US8952024B2, “Herbicidal pyrimidone derivatives” (E I du Pont de Nemours and Company, priority 2009, dated 2015).
Like-named read-outs stand apart in the source and are kept apart here.

Experiments:
Experiment in all cases: Test B pre-/postemergence plant response
Type in all cases: in vivo
[1] = tested on: wild oat (Avena fatua); settings: for pest or weed control at 62 g/ha: 62 g ai/ha
Method in brief: (§1)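 Each species received compound formulated in non-phytotoxic solvent with surfactant, either at planting into a loam and sand blend or as a foliar spray once plants reached 2 to 18 cm in peat-based medium. Plants stayed in the greenhouse 13 to 15 days before visual evaluation against controls, scored 0 (no effect) to 100 (complete control).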

[2] = tested on: yellow nutsedge (Cyperus esculentus); settings: for pest or weed control at 16 g/ha: 16 g ai/ha; for pest or weed control at 16 g/ha / pest or weed control at 31 g/ha / pest or weed control at 62 g/ha: read-out: Plant response rating, Nutsedge, Yellow; for pest or weed control at 31 g/ha: 31 g ai/ha; for pest or weed control at 62 g/ha: 62 g ai/ha
Method in brief: as §1

[3] = tested on: velvetleaf (Abutilon theophrasti); settings: for pest or weed control at 31 g/ha: 31 g ai/ha; for pest or weed control at 31 g/ha / pest or weed control at 62 g/ha: read-out: Plant response rating, Velvetleaf; for pest or weed control at 62 g/ha: 62 g ai/ha
Method in brief: as §1

[4] = tested on: Surinam grass (Brachiaria decumbens); settings: for pest or weed control at 31 g/ha: 31 g ai/ha; for pest or weed control at 62 g/ha: 62 g ai/ha
Method in brief: as §1

[5] = tested on: corn (Zea mays); settings: for Corn plant response rating (crop injury, 0 = no effect, 100 = complete kill) at 16 g/ha: 16 g ai/ha; for Corn plant response rating (crop injury, 0 = no effect, 100 = complete kill) at 31 g/ha: 31 g ai/ha; for Corn plant response rating (crop injury, 0 = no effect, 100 = complete kill) at 62 g/ha: 62 g ai/ha
Method in brief: as §1

[6] = tested on: woolly cupgrass (Eriochloa villosa); settings: for pest or weed control at 16 g/ha: 16 g ai/ha; for pest or weed control at 16 g/ha / pest or weed control at 31 g/ha / pest or weed control at 62 g/ha: read-out: Plant response rating, Cupgrass, Woolly; for pest or weed control at 31 g/ha: 31 g ai/ha; for pest or weed control at 62 g/ha: 62 g ai/ha
Method in brief: as §1

[7] = tested on: soybean (Glycine max); settings: for plant injury at 31 g/ha: 31 g ai/ha, scale 0 to 100 (0 no effect, 100 complete control); for plant injury at 62 g/ha: 62 g ai/ha
Method in brief: as §1

[8] = tested on: blackgrass (Alopecurus myosuroides); settings: for pest or weed control at 16 g/ha: 16 g ai/ha; for pest or weed control at 16 g/ha / pest or weed control at 31 g/ha / pest or weed control at 62 g/ha: read-out: Plant response rating, Blackgrass; for pest or weed control at 31 g/ha: 31 g ai/ha; for pest or weed control at 62 g/ha: 62 g ai/ha
Method in brief: as §1

[9] = tested on: kochia (Kochia scoparia); settings: for pest or weed control at 16 g/ha: 16 g ai/ha; for pest or weed control at 16 g/ha / pest or weed control at 31 g/ha / pest or weed control at 62 g/ha: read-out: Plant response rating, Kochia; for pest or weed control at 31 g/ha: 31 g ai/ha; for pest or weed control at 62 g/ha: 62 g ai/ha
Method in brief: as §1

[10] = Preemergence, 125 g ai/ha, 0 to 100 scale
[11] = Cyperus, pre-emergence, Preemergence, scale 0 to 100 (0 no effect, 100 complete control)
[12] = Abutilon theophrasti, pre-emergence, 360 h, Preemergence, scale 0 to 100 (0 no effect, 100 complete control)
[13] = Urochloa decumbens, pre-emergence, Preemergence, scale 0 to 100 (0 no effect, 100 complete control), read-out: Plant response rating, Surinam Grass
[14] = Zea mays, pre-emergence, Preemergence, scale 0 to 100 (0 no effect, 100 complete control)
[15] = Eriochloa villosa, pre-emergence, Preemergence, scale 0 to 100 (0 no effect, 100 complete control)
[16] = Alopecurus myosuroides, pre-emergence, 360 h, Preemergence, scale 0 to 100 (0 no effect, 100 complete control)
[17] = Bassia scoparia, pre-emergence, Preemergence, scale 0 to 100 (0 no effect, 100 complete control)

Structure (SMILES): O=C1CCCC(O)=C1C(=O)c1cnc(-c2ccccc2)n(-c2ccccc2)c1=O [Compound 2, 5-[(2-hydroxy-6-oxo-1-cyclohexen-1-yl)carbonyl]-2,3-diphenyl-4(3H)-pyrimidinone]
- pest or weed control at 31 g/ha ([1]; Avena fatua, post-emergence, Postemergence, 31 g ai/ha, scale 0 to 100 (0 no effect, 100 complete control), read-out: Plant response rating, Oat, Wild): 30%
- pest or weed control at 62 g/ha ([1]; Avena fatua, post-emergence, Postemergence, scale 0 (no effect) to 100 (complete control), 13 to 15 days, read-out: Plant response rating, Oat, Wild): 45%
- pest or weed control at 125 g/ha ([1]; Avena fatua, post-emergence, Postemergence, 125 g ai/ha, visual rating after 13 to 15 days, scale 0 (no effect) to 100 (complete control)): 55%
- pest or weed control at 16 g/ha ([1]; Avena fatua, pre-emergence, Preemergence, 16 g ai/ha, scale 0 to 100 (0 no effect, 100 complete control), read-out: Plant response rating, Oat, Wild): 0%
- pest or weed control at 62 g/ha ([1]; Avena fatua, pre-emergence, Preemergence, scale 0 to 100 (0 no effect, 100 complete control), read-out: Plant response rating, Oat, Wild): 5%
- Oat, Wild plant response rating [1, 10]: 50
- pest or weed control at 16 g/ha ([2]; Cyperus, post-emergence, Postemergence, 0 to 100 scale): 40%
- pest or weed control at 31 g/ha ([2]; Cyperus, post-emergence, Postemergence, scale 0 to 100 (0 no effect, 100 complete control)): 45%
- pest or weed control at 62 g/ha ([2]; Cyperus, post-emergence, Postemergence, scale 0 (no effect) to 100 (complete control), 13 to 15 days): 60%
- pest or weed control at 125 g/ha ([2]; Cyperus, post-emergence, Postemergence, 125 g ai/ha, visual rating after 13 to 15 days, scale 0 (no effect) to 100 (complete control)): 75%
- pest or weed control at 16 g/ha [2, 11]: 0%
- pest or weed control at 31 g/ha [2, 11]: 15%
- pest or weed control at 62 g/ha [2, 11]: 40%
- Nutsedge, Yellow plant response rating [2, 10]: 70
- pest or weed control at 31 g/ha ([3]; Abutilon theophrasti, post-emergence, 360 h, Postemergence, scale 0 to 100 (0 no effect, 100 complete control)): 85%
- pest or weed control at 62 g/ha ([3]; Abutilon theophrasti, post-emergence, 360 h, Postemergence, scale 0 (no effect) to 100 (complete control), 13 to 15 days): 85%
- pest or weed control at 125 g/ha ([3]; Abutilon theophrasti, post-emergence, 360 h, Postemergence, 125 g ai/ha, visual rating after 13 to 15 days, scale 0 (no effect) to 100 (complete control)): 90%
- pest or weed control at 31 g/ha [3, 12]: 75%
- pest or weed control at 62 g/ha [3, 12]: 90%
- Velvetleaf plant response rating [3, 10]: 100
- Surinam Grass plant response rating [4, 10]: 60
- pest or weed control at 16 g/ha ([4]; Urochloa decumbens, post-emergence, 16 g ai/ha, Postemergence, 0 to 100 scale, read-out: Plant response rating, Surinam Grass): 70%
- pest or weed control at 31 g/ha ([4]; Urochloa decumbens, post-emergence, Postemergence, scale 0 to 100 (0 no effect, 100 complete control), read-out: Plant response rating, Surinam Grass): 70%
- pest or weed control at 62 g/ha ([4]; Urochloa decumbens, post-emergence, Postemergence, scale 0 (no effect) to 100 (complete control), 13 to 15 days, read-out: Plant response rating, Surinam Grass): 75%
- pest or weed control at 125 g/ha ([4]; Urochloa decumbens, post-emergence, Postemergence, 125 g ai/ha, visual rating after 13 to 15 days, scale 0 (no effect) to 100 (complete control)): 85%
- pest or weed control at 31 g/ha [4, 13]: 15%
- pest or weed control at 62 g/ha [4, 13]: 20%
- Corn plant response rating [5, 10]: 0
- Corn plant response rating (crop injury, 0 = no effect, 100 = complete kill) at 16 g/ha ([5]; Zea mays, post-emergence, Postemergence, 0 to 100 scale): 15%
- Corn plant response rating (crop injury, 0 = no effect, 100 = complete kill) at 31 g/ha ([5]; Zea mays, post-emergence, Postemergence, scale 0 to 100 (0 no effect, 100 complete control)): 15%
- Corn plant response rating (crop injury, 0 = no effect, 100 = complete kill) at 62 g/ha ([5]; Zea mays, post-emergence, Postemergence, scale 0 (no effect) to 100 (complete control), 13 to 15 days): 25%
- Corn plant response rating (crop injury, 0 = no effect, 100 = complete kill) at 125 g/ha ([5]; Zea mays, post-emergence, Postemergence, 125 g ai/ha, visual rating after 13 to 15 days, scale 0 (no effect) to 100 (complete control)): 35%
- Corn plant response rating (crop injury, 0 = no effect, 100 = complete kill) at 16 g/ha [5, 14]: 0%
- Corn plant response rating (crop injury, 0 = no effect, 100 = complete kill) at 31 g/ha [5, 14]: 0%
- Corn plant response rating (crop injury, 0 = no effect, 100 = complete kill) at 62 g/ha ([5]; Zea mays, pre-emergence, Preemergence, scale 0 to 100, 0 no effect, 100 complete control): 0%
- pest or weed control at 16 g/ha ([6]; Eriochloa villosa, post-emergence, Postemergence, 0 to 100 scale): 75%
- pest or weed control at 31 g/ha ([6]; Eriochloa villosa, post-emergence, Postemergence, scale 0 to 100 (0 no effect, 100 complete control)): 75%
- pest or weed control at 62 g/ha ([6]; Eriochloa villosa, post-emergence, Postemergence, scale 0 (no effect) to 100 (complete control), 13 to 15 days): 80%
- pest or weed control at 125 g/ha ([6]; Eriochloa villosa, post-emergence, Postemergence, 125 g ai/ha, visual rating after 13 to 15 days, scale 0 (no effect) to 100 (complete control)): 85%
- pest or weed control at 16 g/ha [6, 15]: 0%
- pest or weed control at 31 g/ha [6, 15]: 0%
- pest or weed control at 62 g/ha ([6]; Eriochloa villosa, pre-emergence, Preemergence, scale 0 to 100, 0 no effect, 100 complete control): 15%
- Cupgrass, Woolly plant response rating [6, 10]: 20
- plant injury at 16 g/ha ([7]; Glycine max, post-emergence, 16 g ai/ha, Postemergence, 0 to 100 scale, read-out: Plant response rating, Soybean): 75%
- plant injury at 31 g/ha ([7]; Glycine max, post-emergence, Postemergence, read-out: Plant response rating, Soybean): 80%
- plant injury at 62 g/ha ([7]; Glycine max, post-emergence, Postemergence, scale 0 (no effect) to 100 (complete control), 13 to 15 days, read-out: Plant response rating, Soybean): 90%
- plant injury at 125 g/ha ([7]; Glycine max, post-emergence, Postemergence, 125 g ai/ha, visual rating after 13 to 15 days, scale 0 (no effect) to 100 (complete control)): 95%
- plant injury at 31 g/ha ([7]; Glycine max, pre-emergence, Preemergence, read-out: Plant response rating, Soybean): 15%
- plant injury at 62 g/ha ([7]; Glycine max, pre-emergence, Preemergence, scale 0 to 100, 0 no effect, 100 complete control, read-out: Plant response rating, Soybean): 60%
- Soybean plant response rating [7, 10]: 70
- pest or weed control at 16 g/ha ([8]; Alopecurus myosuroides, post-emergence, 360 h, Postemergence, 0 to 100 scale): 0%
- pest or weed control at 31 g/ha ([8]; Alopecurus myosuroides, post-emergence, 360 h, Postemergence, scale 0 to 100 (0 no effect, 100 complete control)): 10%
- pest or weed control at 62 g/ha ([8]; Alopecurus myosuroides, post-emergence, 360 h, Postemergence, scale 0 (no effect) to 100 (complete control), 13 to 15 days): 30%
- pest or weed control at 125 g/ha ([8]; Alopecurus myosuroides, post-emergence, 360 h, Postemergence, 125 g ai/ha, visual rating after 13 to 15 days, scale 0 (no effect) to 100 (complete control)): 45%
- pest or weed control at 16 g/ha [8, 16]: 0%
- pest or weed control at 31 g/ha [8, 16]: 0%
- pest or weed control at 62 g/ha ([8]; Alopecurus myosuroides, pre-emergence, 360 h, Preemergence, scale 0 to 100, 0 no effect, 100 complete control): 0%
- Blackgrass plant response rating [8, 10]: 50
- pest or weed control at 16 g/ha ([9]; Bassia scoparia, post-emergence, Postemergence, 0 to 100 scale): 55%
- pest or weed control at 31 g/ha ([9]; Bassia scoparia, post-emergence, Postemergence, scale 0 to 100 (0 no effect, 100 complete control)): 60%
- pest or weed control at 62 g/ha ([9]; Bassia scoparia, post-emergence, Postemergence, scale 0 (no effect) to 100 (complete control), 13 to 15 days): 75%
- pest or weed control at 125 g/ha ([9]; Bassia scoparia, post-emergence, Postemergence, 125 g ai/ha, visual rating after 13 to 15 days, scale 0 (no effect) to 100 (complete control)): 80%
- pest or weed control at 16 g/ha [9, 17]: 0%
- pest or weed control at 31 g/ha [9, 17]: 100%
- pest or weed control at 62 g/ha [9, 17]: 100%
- Kochia plant response rating [9, 10]: 100
